From PubChem BioAssay AID1963846 (Molecular Pharmacology Branch, DTP, NCI, 2024)

System: 454973-116-R2-J3-PDC complex spheroid viability
Assay: Anticancer human tumor 454973-116-R2-J3-PDC patient-derived pancreatic carcinoma cell line growth inhibition [POLQ]
Details: for IC50: curve of first compound; for viability, T/C: stronger effect = lower value
How it was run: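 Patient-derived tumour cells were co-cultured with HUVEC and mesenchymal stem cells as multicellular spheroids at 37 °C. They were treated with POLQ inhibitors (novobiocin, ART-558, RP6685) alone or combined with other agents. Top concentrations were at or near clinical Cmax (otherwise 10 microM; SN-38 at 1 microM), decreasing in half-log steps.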

[1] = second compound 0.0316 µM, first compound 0.0316 µM
[2] = second compound 0.0316 µM, first compound 0.1 µM
[3] = second compound 0.0316 µM, first compound 0.316 µM
[4] = second compound 0.0316 µM, first compound 1 µM
[5] = second compound 0.0316 µM, first compound 3.16 µM
[6] = second compound 0.0316 µM, first compound 10 µM
[7] = second compound 0.1 µM, first compound 0.0316 µM
[8] = second compound 0.1 µM, first compound 0.1 µM
[9] = second compound 0.1 µM, first compound 0.316 µM
[10] = second compound 0.1 µM, first compound 1 µM
[11] = second compound 0.1 µM, first compound 3.16 µM
[12] = second compound 0.1 µM, first compound 10 µM
[13] = second compound 0.316 µM, first compound 0.0316 µM
[14] = second compound 0.316 µM, first compound 0.1 µM
[15] = second compound 0.316 µM, first compound 0.316 µM
[16] = second compound 0.316 µM, first compound 1 µM
[17] = second compound 0.316 µM, first compound 3.16 µM
[18] = second compound 0.316 µM, first compound 10 µM
[19] = second compound 1 µM, first compound 0.0316 µM
[20] = second compound 1 µM, first compound 0.1 µM
[21] = second compound 1 µM, first compound 0.316 µM
[22] = second compound 1 µM, first compound 1 µM
[23] = second compound 1 µM, first compound 3.16 µM
[24] = second compound 1 µM, first compound 10 µM
[25] = second compound 3.16 µM, first compound 0.0316 µM
[26] = second compound 3.16 µM, first compound 0.1 µM
[27] = second compound 3.16 µM, first compound 0.316 µM
[28] = second compound 3.16 µM, first compound 1 µM
[29] = second compound 3.16 µM, first compound 3.16 µM
[30] = second compound 3.16 µM, first compound 10 µM
[31] = second compound 10 µM, first compound 0.0316 µM
[32] = second compound 10 µM, first compound 0.1 µM
[33] = second compound 10 µM, first compound 0.316 µM
[34] = second compound 10 µM, first compound 1 µM
[35] = second compound 10 µM, first compound 3.16 µM
[36] = second compound 10 µM, first compound 10 µM
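Further: spheroids exposed to drugs for seven days before measurement.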
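Wherever viability, T/C is given: percent viability relative to DMSO vehicle control wells taken as 100%.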

In the case of `COc1ccc([C@@H](O)c2cc(-c3ncnc4cc(N5CCOCC5)ccc34)c(F)cc2Cl)nn1` + Nc1ccc(C#CCN(C(=O)Cc2ncc(C(F)(F)F)cc2C(F)(F)F)c2ccc(F)cc2)nn1, the IC50 (second compound 0.0316 µM) is reported as over 10 µM, the IC50 (second compound 0.1 µM) is reported as over 10 µM and the IC50 (second compound 0.316 µM) is reported as over 10 µM. The IC50 (second compound 1 µM) was over 10 µM, the IC50 (second compound 3.16 µM) was over 10 µM and the IC50 (second compound 10 µM) was over 10 µM. The viability, T/C [1] was 107%, the viability, T/C [2] was 107% and the viability, T/C [3] was 96.9%. It also gave a viability, T/C [4] of 86.9%, a viability, T/C [5] of 66.3% and a viability, T/C [6] of 53.5%. It also gave a viability, T/C [7] of 106%, a viability, T/C [8] of 96.1% and a viability, T/C [9] of 108%. It also gave a viability, T/C [10] of 90.3%, a viability, T/C [11] of 69.2% and a viability, T/C [12] of 49.8%. For the same molecule, the viability, T/C [13] was 107%, the viability, T/C [14] was 107% and the viability, T/C [15] was 102%. It also gave a viability, T/C [16] of 85.8%, a viability, T/C [17] of 73.9% and a viability, T/C [18] of 52.4%. For the same molecule, the viability, T/C [19] was 107%, the viability, T/C [20] was 106% and the viability, T/C [21] was 104%. The viability, T/C [22] was 92.3%, the viability, T/C [23] was 79.4% and the viability, T/C [24] was 59.9%. It also gave a viability, T/C [25] of 102%, a viability, T/C [26] of 107% and a viability, T/C [27] of 116%. It also gave a viability, T/C [28] of 93.9%, a viability, T/C [29] of 68.5% and a viability, T/C [30] of 56.5%. The viability, T/C [31] was 120%, the viability, T/C [32] was 119% and the viability, T/C [33] was 118%. It also gave a viability, T/C [34] of 93.7%, a viability, T/C [35] of 80.3% and a viability, T/C [36] of 64.4%.

`CC1COCCN1c1cc(-c2ccnn2C)c2ccnc(-c3ccn[nH]3)c2n1` (stereo unspecified) + Nc1ccc(C#CCN(C(=O)Cc2ncc(C(F)(F)F)cc2C(F)(F)F)c2ccc(F)cc2)nn1 showed an IC50 (second compound 0.0316 µM) of 0.126 µM, an IC50 (second compound 0.1 µM) of 0.117 µM and an IC50 (second compound 0.316 µM) of 0.119 µM. For the same molecule, the IC50 (second compound 1 µM) was 0.109 µM, the IC50 (second compound 3.16 µM) was 0.119 µM and the IC50 (second compound 10 µM) was 0.09 µM. For the same molecule, the viability, T/C [1] was 83.6%, the viability, T/C [2] was 57.6% and the viability, T/C [3] was 19.8%. For the same molecule, the viability, T/C [4] was 11.3%, the viability, T/C [5] was 14% and the viability, T/C [6] was 14.1%. For the same molecule, the viability, T/C [7] was 80.3%, the viability, T/C [8] was 54.6% and the viability, T/C [9] was 20.1%. For the same molecule, the viability, T/C [10] was 13.5%, the viability, T/C [11] was 11.2% and the viability, T/C [12] was 14.6%. For the same molecule, the viability, T/C [13] was 91%, the viability, T/C [14] was 55.6% and the viability, T/C [15] was 19.1%. The viability, T/C [16] was 9.76%, the viability, T/C [17] was 12.6% and the viability, T/C [18] was 14.6%. For the same molecule, the viability, T/C [19] was 90.2%, the viability, T/C [20] was 52.7% and the viability, T/C [21] was 16.8%. For the same molecule, the viability, T/C [22] was 11.3%, the viability, T/C [23] was 13.6% and the viability, T/C [24] was 14.5%. The viability, T/C [25] was 88.7%, the viability, T/C [26] was 55.6% and the viability, T/C [27] was 18.2%. It also gave a viability, T/C [28] of 11.3%, a viability, T/C [29] of 9.64% and a viability, T/C [30] of 11.8%. It also gave a viability, T/C [31] of 92.5%, a viability, T/C [32] of 45.7% and a viability, T/C [33] of 17.5%. The viability, T/C [34] was 10.5%, the viability, T/C [35] was 10.2% and the viability, T/C [36] was 13.4%.

In the case of `COc1cc2cc(C(=O)CCC(=O)O)sc2cc1OC` + Cc1cccc(N(C)C(=O)C2C(O)CCN2c2nc(C)cc(C(F)(F)F)c2C#N)c1, the IC50 (second compound 0.0316 µM) is reported as over 10 µM, the IC50 (second compound 0.1 µM) is reported as over 10 µM and the IC50 (second compound 0.316 µM) is reported as over 10 µM. The IC50 (second compound 1 µM) was over 10 µM, the IC50 (second compound 3.16 µM) was over 10 µM and the IC50 (second compound 10 µM) was over 10 µM. It also gave a viability, T/C [1] of 103%, a viability, T/C [2] of 107% and a viability, T/C [3] of 107%. The viability, T/C [4] was 102%, the viability, T/C [5] was 106% and the viability, T/C [6] was 97%. For the same molecule, the viability, T/C [7] was 105%, the viability, T/C [8] was 98.1% and the viability, T/C [9] was 95.7%. It also gave a viability, T/C [10] of 98%, a viability, T/C [11] of 92.6% and a viability, T/C [12] of 88.7%. It also gave a viability, T/C [13] of 93.8%, a viability, T/C [14] of 104% and a viability, T/C [15] of 96.2%. The viability, T/C [16] was 110%, the viability, T/C [17] was 109% and the viability, T/C [18] was 93.7%. The viability, T/C [19] was 105%, the viability, T/C [20] was 102% and the viability, T/C [21] was 99%. For the same molecule, the viability, T/C [22] was 102%, the viability, T/C [23] was 105% and the viability, T/C [24] was 93.7%. It also gave a viability, T/C [25] of 103%, a viability, T/C [26] of 97.9% and a viability, T/C [27] of 96.5%. For the same molecule, the viability, T/C [28] was 100%, the viability, T/C [29] was 98.9% and the viability, T/C [30] was 95.5%. For the same molecule, the viability, T/C [31] was 97.7%, the viability, T/C [32] was 98.8% and the viability, T/C [33] was 94%. For the same molecule, the viability, T/C [34] was 111%, the viability, T/C [35] was 102% and the viability, T/C [36] was 90.8%.
